IC50 data for 14 compounds are collected here from patent US20260042764A1, “COMPOSITIONS AND METHODS FOR INHIBITION OF KRAS” (TheRas, Inc., priority 2022, published 2026).

Each structure is given as a SMILES string.

One experiment deals with SW620 cells (KRAS G12V). Nature of the experiment: Cell-based pERK HTRF assay in SW620 cell (Biological Example 4). Conditions: Homo sapiens, SW-620, SW620 (KRAS G12V) cells. Summed up:
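In SW620 cells grown in RPMI with 10% FBS, a 4 h compound treatment (0.25% DMSO, 9-point curve from 1 μM) preceded lysis. Phospho-ERK levels were then read by time-resolved FRET at 615 nm emission.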
In general terms: TR-FRET usually uses a lanthanide donor and a delayed reading to cut background.

The target in experiment [1] is T1, Avi-KRAS G12C (2-169) GTP/RAF1 RBD-3xFLAG (51-131) (Homo sapiens, UniProt P01116, G12C).
T1 construct: Avi-KRAS G12C (2-169)
Nature of the experiment: Raf1-KRAS G12C-GTP disruption HTRF assay (Biological Example 3). The class given is binding. Conditions: KRAS G12C, GTP-loaded. The procedure:
(§1) Biological Example 3: Disrupting RAS-Effector Binding HTRF Assay
(§2) A protein:protein interaction (PPI) Homogeneous Time Resolved Fluorescence (HTRF) assay was used to determine the effectiveness of compounds in disrupting KRAS protein and effector (RAF1) binding.
(§3) The HTRF assay used the following reagents and proteins: (i) 50 nM Avi-KRAS G12D (2-169) GTP/RAF1 RBD-3xFLAG (51-131): (ii) 50 nM Avi-KRAS G12C (2-169) GTP/RAF1 RBD-3xFLAG (51-131): (iii) 50 nM Avi-KRAS G12V (2-169) GTP/RAF1 RBD-3xFLAG (51-131); (iv) 50 nM Avi-KRAS WT (2-169) GTP/RAF1 RBD-3xFLAG (51-131); and (v) 75 nM 3xFLAG-RAF1 RBD (51-131)-Avi. The assay buffer included: 50 mM Tris pH 7.5 (Invitrogen, 15567-027), 100 mM NaCl (Sigma, S5150-IL), 5 mM MgCl2 (Sigma, 63069), 0.1% BSA (Sigma, A7030), 0.01% Tween 20 (Sigma, P7949), 10% DMSO (Cell Signaling, 12611). The bead buffer included: 50 mM Tris pH 7.5 (Invitrogen, 15567-027), 0.01% Tween 20 (Sigma, P7949). An assay volume of 20 μL was used in a 384 well plate-low volume format. Compound titration: 30-0.005 μM, 3x dilution series.
(§4) The HTRF assay employed the following protocol:
(§5) Compounds were dispensed in assay plate (384-well, Grenier Bio-One #784075) using Echo (model 555) with dose response settings: 200 nL final volume, titration from 30 μM as a 10-point dilution series. Proteins and HTRF reagents were mixed and dispensed onto plates, 20 μL per well, and then incubated for 1 h at room temperature, with 700 rpm shaking.
(§6) Plates were analyzed on an Envision plate reader using the following setting: Excitation 320 nm, Bandwidth 75 nm; Emission 615 nm, Bandwidth 85 nm; Gain 100%; Flashes 100; Lag 60 μs. Data was reported as percentage of activity, with DMSO as 100%. Data was plotted and analyzed using Prism 8.
(§7) The biochemical Raf1-KRAS G12D/G12V/G12C/WT-GTP disruption assay IC50 of selected compounds described herein are shown in Table 12.

Experiment [2] addresses T2, Avi-KRAS G12V (2-169) GTP/RAF1 RBD-3xFLAG (51-131) (Homo sapiens, UniProt P01116, G12V).
T2 construct: Avi-KRAS G12V (2-169)
Nature of the experiment: Raf1-KRAS G12V-GTP disruption HTRF assay (Biological Example 3). The class given is binding. Conditions: KRAS G12V, GTP-loaded. The procedure:
as §1, §2, §3, §4, §5, §6, §7

For a further experiment, the system named is GP2d cells (KRAS G12D). Nature of the experiment: Cell-based pERK HTRF assay in GP2d cell (Biological Example 2). The following applies: GP2d, GP2d (KRAS G12D) cells. In outline:
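60 min compound, 0.25% DMSO, 9-pt half-log curve from 1 μM or 100 nM; DMEM/10% FBS.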

Experiment [3] concerns the target T3, Avi-KRAS G12D (2-169) GTP/RAF1 RBD-3xFLAG (51-131) (Homo sapiens, UniProt P01116, G12D).
T3 construct: Avi-KRAS G12D (2-169)
Nature of the experiment: Raf1-KRAS G12D-GTP disruption HTRF assay (Biological Example 3). The class given is binding. Conditions: KRAS G12D, GTP-loaded. The procedure:
as §1, §2, §3, §4, §5, §6, §7

The target of experiment [4] is T4, Avi-KRAS WT (2-169) GTP/RAF1 RBD-3xFLAG (51-131) (Homo sapiens, UniProt P01116).
T4 construct: Avi-KRAS WT (2-169)
Nature of the experiment: Raf1-KRAS WT-GTP disruption HTRF assay (Biological Example 3). The class given is binding. Conditions: KRAS WT, GTP-loaded. The method, then: as §1, §2, §3, §4, §5, §6, §7

T3 sequence (P01116 2-169 isoform P01116-2 G12D): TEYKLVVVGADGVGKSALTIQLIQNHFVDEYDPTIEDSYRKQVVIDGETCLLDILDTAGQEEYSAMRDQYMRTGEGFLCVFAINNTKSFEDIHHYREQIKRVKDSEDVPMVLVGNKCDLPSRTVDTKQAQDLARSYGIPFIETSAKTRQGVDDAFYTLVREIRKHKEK
T1 sequence (P01116 2-169 isoform P01116-2 G12C): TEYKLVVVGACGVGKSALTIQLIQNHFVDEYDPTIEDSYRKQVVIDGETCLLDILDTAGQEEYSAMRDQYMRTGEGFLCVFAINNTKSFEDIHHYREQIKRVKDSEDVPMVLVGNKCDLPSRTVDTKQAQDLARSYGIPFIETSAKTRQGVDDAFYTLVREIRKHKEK
T2 sequence (P01116 2-169 isoform P01116-2 G12V): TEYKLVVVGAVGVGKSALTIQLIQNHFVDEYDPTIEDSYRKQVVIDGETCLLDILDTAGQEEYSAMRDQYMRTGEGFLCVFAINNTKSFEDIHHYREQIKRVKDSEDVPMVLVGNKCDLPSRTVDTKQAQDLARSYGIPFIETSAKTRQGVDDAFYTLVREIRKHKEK
T4 sequence (P01116 2-169 isoform P01116-2): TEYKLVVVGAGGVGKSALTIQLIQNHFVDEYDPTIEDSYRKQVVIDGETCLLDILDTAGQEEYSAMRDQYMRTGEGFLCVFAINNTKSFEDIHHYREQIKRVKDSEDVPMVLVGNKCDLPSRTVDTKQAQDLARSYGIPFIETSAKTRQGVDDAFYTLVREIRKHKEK

Turning to `COC(=O)N1CC[C@H](N(CCF)c2nc(OC[C@@]34CCCN3C[C@H](F)C4)nc3c(F)c(-c4ccc(F)c5sc(N)c(C#N)c45)c(C(F)(F)F)cc23)C1` (atropisomer, axis not shown) [Compound 829], the IC50 in the experiment on SW620 cells (KRAS G12V) is < 100 nM; in experiment [1], 100 to 1000 nM; in experiment [2], 100 to 1000 nM; with GP2d cells (KRAS G12D), < 100 nM; in experiment [3], 100 to 1000 nM; in experiment [4], 1000 to 10000 nM.
Consider `CCN(c1nc(OC[C@@]23CCCN2C[C@H](F)C3)nc2c(F)c(-c3ccc(F)c4sc(N)c(C#N)c34)c(C(F)(F)F)cc12)[C@H]1CCN(C(=O)OC2CC(F)(F)C2)C1` (atropisomer, axis not shown) [Compound 830], for which the IC50 in the experiment on SW620 cells (KRAS G12V) was < 100 nM; in experiment [1] it was 100 to 1000 nM; in experiment [2], 100 to 1000 nM; in the experiment with GP2d cells (KRAS G12D), < 100 nM; in experiment [3] it was 100 to 1000 nM; in experiment [4], 100 to 1000 nM.
Consider `CCN(c1nc(OC[C@@]23CCCN2C[C@H](F)C3)nc2c(F)c(-c3ccc(F)c4sc(N)c(C#N)c34)c(C(F)(F)F)cc12)[C@H]1CCN(C(=O)N2CC(F)(F)C2)C1` (atropisomer, axis not shown) [Compound 831], for which the IC50 with SW620 cells (KRAS G12V) is < 100 nM; in experiment [1], 100 to 1000 nM; in experiment [2], 100 to 1000 nM; in the experiment on GP2d cells (KRAS G12D) it was < 100 nM; in experiment [3], 100 to 1000 nM; in experiment [4], 100 to 1000 nM.
In the case of `CCN(c1nc(OC[C@@]23CCCN2C[C@H](F)C3)nc2c(F)c(-c3ccc(F)c4sc(N)c(C#N)c34)c(C(F)(F)F)cc12)[C@H]1CCN(C(=O)c2coc(C)n2)C1` (atropisomer, axis not shown) [Compound 832], the IC50 is < 100 nM in the experiment on SW620 cells (KRAS G12V); ≤ 100 nM in experiment [1]; ≤ 100 nM in experiment [2]; < 100 nM in the experiment on GP2d cells (KRAS G12D); ≤ 100 nM in experiment [3]; 100 to 1000 nM in experiment [4].
For `CCN(c1nc(OC[C@@]23CCCN2C[C@H](F)C3)nc2c(F)c(-c3ccc(F)c4sc(N)c(C#N)c34)c(C(F)(F)F)cc12)[C@H]1CCN(C(=O)C2COC2)[C@@H]1C` (atropisomer, axis not shown) [Compound 833], the IC50 was < 100 nM in the experiment with SW620 cells (KRAS G12V); 100 to 1000 nM in experiment [1]; 100 to 1000 nM in experiment [2]; < 100 nM with GP2d cells (KRAS G12D); ≤ 100 nM in experiment [3]; 100 to 1000 nM in experiment [4].
In the case of `CCN(c1nc(OC[C@@]23CCCN2C[C@H](F)C3)nc2c(F)c(-c3ccc(F)c4sc(N)c(C#N)c34)c(C(F)(F)F)cc12)[C@H]1CCN(C(=O)O[C@@H]2CO[C@H]3OCC[C@H]32)C1` (atropisomer, axis not shown) [Compound 834], the half-maximal inhibitory concentration (IC50) with SW620 cells (KRAS G12V) was < 100 nM; in experiment [1] it was ≤ 100 nM; in experiment [2], ≤ 100 nM; with GP2d cells (KRAS G12D), < 100 nM; in experiment [3] it was ≤ 100 nM; in experiment [4], 100 to 1000 nM.
On to `CCN(c1nc(OC[C@@]23CCCN2C[C@H](F)C3)nc2c(F)c(-c3ccc(F)c4sc(N)c(C#N)c34)c(C(F)(F)F)cc12)[C@H]1CCN(C(=O)OCC2COC2)[C@@H]1C` (atropisomer, axis not shown) [Compound 835], for which the IC50 in the experiment on SW620 cells (KRAS G12V) was < 100 nM; in experiment [1], ≤ 100 nM; in experiment [2], 100 to 1000 nM; in the experiment on GP2d cells (KRAS G12D), < 100 nM; in experiment [3], 100 to 1000 nM; in experiment [4], 1000 to 10000 nM.
As for `CCN(c1nc(OC[C@@]23CCCN2C[C@H](F)C3)nc2c(F)c(-c3ccc(F)c4sc(N)c(C#N)c34)c(C(F)(F)F)cc12)[C@H]1C[C@H]2[C@H](C)OC(=O)N2C1` (atropisomer, axis not shown) [Compound 836], the IC50 in the experiment on SW620 cells (KRAS G12V) was < 100 nM; in experiment [1], 100 to 1000 nM; in experiment [2], 100 to 1000 nM; in the experiment on GP2d cells (KRAS G12D) it was < 100 nM; in experiment [3], 100 to 1000 nM; in experiment [4] it was 100 to 1000 nM.
Take `CCN(c1nc(OC[C@@]23CCCN2C[C@H](F)C3)nc2c(F)c(-c3ccc(F)c4sc(N)c(C#N)c34)c(C(F)(F)F)cc12)[C@H]1C[C@H](COC)N(C(=O)OC2COC2)C1` (atropisomer, axis not shown) [Compound 837]: the IC50 is < 100 nM in the experiment with SW620 cells (KRAS G12V); 100 to 1000 nM in experiment [1]; 100 to 1000 nM in experiment [2]; < 100 nM in the experiment on GP2d cells (KRAS G12D); 100 to 1000 nM in experiment [3]; 100 to 1000 nM in experiment [4].
With `CCN(c1nc(OC[C@@]23CCCN2C[C@H](F)C3)nc2c(F)c(-c3ccc(F)c4sc(N)c(C#N)c34)c(C(F)(F)F)cc12)[C@H]1C[C@H](COC)N(C(=O)N2CC(OC)C2)C1` (atropisomer, axis not shown) [Compound 839], the IC50 was < 100 nM in the experiment with SW620 cells (KRAS G12V); 100 to 1000 nM in experiment [1]; 100 to 1000 nM in experiment [2]; < 100 nM in the experiment with GP2d cells (KRAS G12D); 100 to 1000 nM in experiment [3]; 100 to 1000 nM in experiment [4].
Take `CCN(c1nc(OC[C@@]23CCCN2C[C@H](F)C3)nc2c(F)c(-c3ccc(F)c4sc(N)c(C#N)c34)c(C(F)(F)F)cc12)[C@H]1C[C@H](COC)N(C(=O)[C@H]2CCO2)C1` (atropisomer, axis not shown) [Compound 840]: the concentration for half-maximal inhibition (IC50) in the experiment with SW620 cells (KRAS G12V) was < 100 nM; in experiment [1] it was 100 to 1000 nM; in experiment [2], 100 to 1000 nM; in the experiment on GP2d cells (KRAS G12D), < 100 nM; in experiment [3] it was 100 to 1000 nM; in experiment [4], 100 to 1000 nM.
On to `CCN(c1nc(OC[C@@]23CCCN2C[C@H](F)C3)nc2c(F)c(-c3ccc(F)c4sc(N)c(C#N)c34)c(C(F)(F)F)cc12)[C@H]1C[C@H](C)N(C(=O)[C@@H]2C[C@@H]2F)C1` (atropisomer, axis not shown) [Compound 841], for which the IC50 was < 100 nM in the experiment on SW620 cells (KRAS G12V); 100 to 1000 nM in experiment [1]; 100 to 1000 nM in experiment [2]; < 100 nM in the experiment on GP2d cells (KRAS G12D); 100 to 1000 nM in experiment [3]; 100 to 1000 nM in experiment [4].
On to `CCN(c1nc(OC[C@@]23CCCN2C[C@H](F)C3)nc2c(F)c(-c3ccc(F)c4sc(N)c(C#N)c34)c(C(F)(F)F)cc12)[C@H]1CCN(C(=O)[C@H]2C[C@@H](F)C2)C1` (atropisomer, axis not shown) [Compound 842], for which the IC50 in the experiment with SW620 cells (KRAS G12V) is < 100 nM; in experiment [1], 100 to 1000 nM; in experiment [2] it was 100 to 1000 nM; with GP2d cells (KRAS G12D) it was < 100 nM; in experiment [3], 100 to 1000 nM; in experiment [4], 100 to 1000 nM.
Regarding `N#Cc1c(N)sc2c(F)ccc(-c3c(C(F)(F)F)cc4c(N(CCF)[C@H]5CCN(C(=O)[C@@H]6CC6(F)F)C5)nc(OC[C@@]56CCCN5C[C@H](F)C6)nc4c3F)c12` (atropisomer, axis not shown) [Compound 843], the IC50 with SW620 cells (KRAS G12V) was < 100 nM; in experiment [1], 100 to 1000 nM; in experiment [2], 100 to 1000 nM; in the experiment on GP2d cells (KRAS G12D), < 100 nM; in experiment [3] it was 100 to 1000 nM; in experiment [4], 1000 to 10000 nM.

As usually defined, the IC50 is the concentration that gives 50% inhibition.
